pIC50: −log10 of the molar value.
target: T1, chimeric human RORγ-Gal4 receptor (Homo sapiens, UniProt P51449); assay: transient transactivation assay (RORγ-Gal4 luciferase reporter); format: cell-based; conditions: Cos-7 cells transfected with RORγ-Gal4 and 5Gal4 pGL3 TK Luc reporter; overnight incubation; T0901317 at 10^-5 M as reference; read-out: IC50
T1 sequence (P51449 269-508 limits assumed): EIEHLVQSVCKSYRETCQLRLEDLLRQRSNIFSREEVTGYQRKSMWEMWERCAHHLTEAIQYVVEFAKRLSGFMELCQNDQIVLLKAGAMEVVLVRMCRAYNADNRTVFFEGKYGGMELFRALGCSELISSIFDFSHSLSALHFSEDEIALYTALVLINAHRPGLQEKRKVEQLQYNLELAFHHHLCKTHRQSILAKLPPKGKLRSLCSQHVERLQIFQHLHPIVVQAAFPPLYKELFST

pIC50 | Structure (SMILES)
6.30 to 7.00 | Cc1ncc(C(=O)N2CCC(CC(=O)O)CC2)c(C)c1Cc1cc2c(C)cc(C(F)(F)F)cc2n1C [Example BC, 2-(1-(5-((1,4-dimethyl-6-(trifluoromethyl)-1H-indol-2-yl)methyl)-4,6-dimethylnicotinoyl)piperidin-4-yl)acetic acid]
> 7.00 | Cc1cn(Cc2c(Cl)ncc(C(=O)N3CCC(CC(=O)O)CC3)c2Cl)c2c(C)cc(C(F)(F)F)cc12 [ER, 2-(1-(4,6-dichloro-5-((3,7-dimethyl-5-(trifluoromethyl)-1H-indol-1-yl)methyl)nicotinoyl)piperidin-4-yl)acetic acid]
6.30 to 7.00 | Cc1cc(C#N)cc2c1cc(Cc1c(Cl)ccc(C(=O)NC3COC3)c1Cl)n2C [AA-24]
> 7.00 | Cc1cc(C(F)(F)F)nc2c1cc(Cc1c(Cl)ccc(C(=O)N3CCOCC3)c1Cl)n2C [CM, (2,4-dichloro-3-((1,4-dimethyl-6-(trifluoromethyl)-1H-pyrrolo[2,3-b]pyridin-2-yl)methyl)phenyl)(morpholino)methanone]
> 7.00 | Cc1cc(C(F)(F)F)nc2c1cc(Cc1c(Cl)ncc(C(=O)N3CCOCC3)c1Cl)n2C [Example GF, (4,6-dichloro-5-((1,4-dimethyl-6-(trifluoromethyl)-1H-pyrrolo[2,3-b]pyridin-2-yl)methyl)pyridin-3-yl)(morpholino)methanone]
> 7.00 | Cc1cc(OC(F)(F)F)cc2ccn(Cc3c(Cl)ccc(C(=O)N4CCC(CCC(=O)O)CC4)c3Cl)c12 [EJ-2]
> 7.00 | Cc1cn(Cc2c(Cl)ccc(C(=O)N3CC[C@H](C(=O)O)[C@H](C)C3)c2Cl)c2c(C)cc(C(F)(F)F)cc12 [DH1-1]
6.30 to 7.00 | Cc1cc(C#N)cc2c1cc(Cc1c(Cl)ccc(C(=O)N3CCC(N(C)C)C3)c1Cl)n2C (centres unmarked) [AA-14]
> 7.00 | Cc1cc(OC(F)(F)F)cc2c1cc(Cc1c(Cl)ccc(C(=O)N3CC[C@@H](C(=O)O)[C@@H](C)C3)c1Cl)n2C [DP-3, (3R,4R)-1-(2,4-dichloro-3-((1,4-dimethyl-6-(trifluoromethoxy)-1H-indol-2-yl)methyl)benzoyl)-3-methylpiperidine-4-carboxylic acid]
> 7.00 | Cc1cc(C(F)(F)F)cc2c1cc(Cc1c(Cl)ncc(C(=O)N3CCOCC3)c1Cl)n2C [Example BH, (4,6-dichloro-5-((1,4-dimethyl-6-(trifluoromethyl)-1H-indol-2-yl)methyl)pyridin-3-yl)(morpholino)methanone]
6.30 to 7.00 | Cc1c(Br)ccc2c1nc(Cc1c(Cl)ccc(C(=O)N3CCOCC3)c1Cl)n2C [Example CB, (3-((5-bromo-1,4-dimethyl-1H-benzo[d]imidazol-2-yl)methyl)-2,4-dichlorophenyl)(morpholino)methanone]
> 7.00 | Cn1c(Cc2c(Cl)ccc(C(=O)N3CCC(CC(=O)O)CC3)c2Cl)cc2c(Cl)cc(C#N)cc21 [Example R, 2-(1-(2,4-dichloro-3-((4-chloro-6-cyano-1-methyl-1H-indol-2-yl)methyl)benzoyl)piperidin-4-yl)acetic acid]
> 7.00 | Cc1cc(C(F)(F)F)cc2c1cc(Cc1c(Cl)ccc(C(=O)N3CCN(C(C)C(=O)O)CC3)c1Cl)n2C (centres unmarked) [Example U, 2-(4-(2,4-dichloro-3-((1,4-dimethyl-6-(trifluoromethyl)-1H-indol-2-yl)methyl)benzoyl)piperazin-1-yl)propanoic acid]
6.30 to 7.00 | COC1CN(C(=O)c2ccc(Cl)c(Cc3cc4c(C)cc(C#N)cc4n3C)c2Cl)C1 [AA-21]
6.30 to 7.00 | Cc1cc(C#N)cc2c1cc(Cc1c(Cl)ccc(C(=O)N3CC(N4CCCC4)C3)c1Cl)n2C [AA-16]
> 7.00 | Cc1cc(C(F)(F)F)cc2c1nc(Cc1c(Cl)ccc(C(=O)N3CCC(CC(=O)O)CC3)c1Cl)n2C [Example BU, 2-(1-(2,4-dichloro-3-((1,4-dimethyl-6-(trifluoromethyl)-1H-benzo[d]imidazol-2-yl)methyl)benzoyl)piperidin-4-yl)acetic acid]

pIC50 | Structure (SMILES)
> 7.00 | Cc1cc(C(F)(F)F)cc2c1c(Cc1c(Cl)ccc(C(=O)N3C[C@@H]4[C@H](C3)[C@H]4C(=O)O)c1Cl)cn2C [Example F1-1]
> 7.00 | Cc1cc(C(F)(F)F)cc2c1nc(Cc1c(Cl)ccc(C(=O)N3CCC4(CCOC4)CC3)c1Cl)n2C [BJ-8]
> 7.00 | Cc1cc(OC(F)(F)F)cc2c1cc(Cc1c(Cl)ccc(C(=O)N3CCC(CC(=O)O)CC3)c1Cl)n2C [DP, 2-(1-(2,4-dichloro-3-((1,4-dimethyl-6-(trifluoromethoxy)-1H-indol-2-yl)methyl)benzoyl)piperidin-4-yl)acetic acid]
6.30 to 7.00 | Cc1cc(C#N)cn2c(C)c(Cc3c(Cl)ccc(C(=O)N4CCC(C5COC5)CC4)c3Cl)nc12 [CV-5]
6.30 to 7.00 | Cn1c(Cc2c(Cl)ccc(C(=O)N3CCOCC3)c2Cl)cc2cc(C#N)ccc21 [Example AB, 2-(2,6-dichloro-3-(morpholine-4-carbonyl)benzyl)-1-methyl-1H-indole-5-carbonitrile]
5.00 to 6.00 | Cc1cc(C#N)nc2c1nc(Cc1c(Cl)ccc(C(=O)N3CCOCC3)c1Cl)n2C [CI, 2-(2,6-dichloro-3-(morpholine-4-carbonyl)benzyl)-3,7-dimethyl-3H-imidazo[4,5-b]pyridine-5-carbonitrile]
> 7.00 | Cc1cc(C(F)(F)F)cc2c1cc(Cc1c(Cl)ccc(C(=O)N3C[C@@H]4C(C(=O)O)[C@@H]4C3)c1Cl)n2C (some centres unmarked) [Example B-8]
6.30 to 7.00 | Cc1ccc(C(=O)N2CCOCC2)c(C)c1Cc1cc2c(C)cc(C#N)cc2n1C [Example AE, 2-(2,6-dimethyl-3-(morpholine-4-carbonyl)benzyl)-1,4-dimethyl-1H-indole-6-carbonitrile]
> 7.00 | Cn1c(Cc2c(Cl)ccc(C(=O)N3CCC(C(=O)O)CC3)c2Cl)cc2ccc(OC(F)(F)F)cc21 [FI-1]
> 7.00 | Cc1cn(C(=O)c2c(Cl)ccc(C(=O)N3CCC(CC(=O)O)CC3)c2Cl)c2c(C)cc(OC(F)(F)F)cc12 [EH, 2-[1-[2,4-dichloro-3-[3,7-dimethyl-5-(trifluoromethoxy)indole-1-carbonyl]benzoyl]-4-piperidyl]acetic acid]
> 7.00 | Cc1cc(C(F)(F)F)cc2c1nc(Cc1c(Cl)ccc(C(=O)N3CCC(C4COC4)CC3)c1Cl)n2C [BJ-17]
> 7.00 | Cc1cc(OC(F)(F)F)cc2ccn(C(=O)c3c(Cl)ccc(C(=O)N4CCC(CC(=O)O)CC4)c3Cl)c12 [EL, 2-(1-(2,4-dichloro-3-(7-methyl-5-(trifluoromethoxy)-1H-indole-1-carbonyl)benzoyl)piperidin-4-yl)acetic acid]
> 7.00 | COCCN1CCN(C(=O)c2ccc(Cl)c(Cc3cc4c(C)cc(C(F)(F)F)cc4n3C)c2Cl)CC1 [A, (2,4-dichloro-3-((1,4-dimethyl-6-(trifluoromethyl)-1H-indol-2-yl)methyl)phenyl)(4-(2-methoxyethyl)piperazin-1-yl)methanone]
6.30 to 7.00 | Cc1cc(C(F)(F)F)cc2c1nc(Cc1c(Cl)ccc(C(=O)N3CCC(CC(C)O)CC3)c1Cl)n2C (centres unmarked) [BJ-19]
> 7.00 | O=C(O)CC1CCN(C(=O)c2ccc(Cl)c(Cn3ccc4cc(C5CC5)cc(F)c43)c2Cl)CC1 [EN, 2-(1-(2,4-dichloro-3-((5-cyclopropyl-7-fluoro-1H-indol-1-yl)methyl)benzoyl)piperidin-4-yl)acetic acid]
6.30 to 7.00 | Cc1cc(C(F)(F)F)cc2c1nc(Cc1c(Cl)ccc(CN3CCC(C(C)(C)O)CC3)c1Cl)n2C [BW-7]

From patent publication US10106501B2, “Nuclear receptor modulators” (AbbVie Inc., priority 2015, dated 2018)
